Consider 28 molecules from patent publication US11339144B2 (Navitor Pharmaceuticals, Inc., priority 2017, dated 2022).

Molecules are shown by their SMILES.

In one test the target is Rheb (Homo sapiens (Human), UniProt Q15382). The experiment in a line: Affinity Selection Mass Spectrometry (ASMS). The test is classed as binding. The settings on record: affinity (R3/R0) in Affinity Selection Mass Spectrometry assay. Here is the method:
Method 2 (Affinity Selection Mass Spectrometry
Protein: Rheb (19 KDa) in the following buffer: 20 mM Tris, pH 8.0, 200 mM NaCl, 2 mM DTT, 5 mM MgCl2 was prepared as under.
Human Rheb protein (I-169) was purified from BL21 (DE3) E. coli using a His-Smt-Rheb expression vector. The cell paste was lysed in lysis buffer (50 mM HEPES pH 7.5, 0.5 M NaCl, 5% Glycerol, 1% CHAPS, EDTA free protease inhibitor tablets, lysozyme to 1 mg/mL, benzonase 250U), sonicated, and purified on a HiTrap Ni Chelating Column (GE Healthcare) using the following buffer: 50 mM HEPES pH 7.5, 0.5 M NaCl, 5% Glycerol, and imidazole increasing in concentration from 5 mM to 500 mM. The His-Smt tag was cleaved using a U1p1 enzyme and dialyzed into 50 mM HEPES pH 7.5, 0.5 M NaCl, 5% Glycerol. The resultant protein was again purified on a Ni Chelating column to remove the U1p1 enzyme and His-Smt tag and then purified by size exclusion chromatography on a Sephacryl S-100 26/60 column into the following final buffer: 20 mM NaPhos pH 7.0, 100 mM NaCl, 5 mM MgCl2, 2 mM TCEP.
Concentrations: 60 μM Rheb, 180 μM GDP and 2 μM of each compound,
Ultrafiltration Filter (Sartorius, Germany) MW cutoff: 10 KDa
• (a) Sample preparation: Prepare sample for each group in 1.5 mL microcentrifuge tube according to the experimental design, total volume 550 μL. In a standard ASMS experiment there are two groups: Protein plus (P+L+) and protein minus (P−L+). • (b) Transfer 50 μL from the 550 μL to a vial as R0 sample. Incubate the rest solution for 30 min at room temperature. Then transfer the 500 μL into an ultrafiltration filter tube and centrifuge at 12×10^3 rpm for ˜10 min, leave about 50 μL solution (otherwise adjust this time). • (c) Add incubation buffer to the ultrafiltration filter tube to about 500 μL. Stir gently and centrifuge mixtures as above, leave about 50 μL solution. • (d) Repeat the step c. Transfer the remaining 50 μL upper layer solution to a new vial as R^3 sample. Sample Extraction: Add 150 μL MeCN to denature the protein completely. Centrifuge at 12×10^3 rpm for 5 min. Transfer the supernatant into LC-MS auto sampler vials for LC-MS analysis (5 uL injection).
Waters Acquity UPLC system, Waters ACQUITY UPLC BEH C18 column (2.1×50 mm, 1.7 μM); Mobile phase A: 0.1% formic acid solution, B: MeCN; 0.3 mL/min, 5 μL injection, gradient elution (Table 5).
Waters Synapt G1 Q-TOF system, positive or negative ion scan modes; Capillary voltage: 3.0 kV; Method: MSE; Mass range: m/z=100-1000; Source temperature: 120° C.; Desolvation temperature: 400° C.; Collision voltage: 35 V; Sampling Cone: 35 V; Extraction Cone: 4.0 V; Cone Gas: 50 L/h; Desolvation Gas: 800 L/h.

Test [1] deals with HA-GST-Rheb (GTP-γ-S loaded) activating mTORC1 (Homo sapiens (Human), UniProt Q15382). Put plainly: Rheb-dependent in vitro kinase assay (Rheb-IVK; LanthaScreen or Western readout). The test is classed as biochemical. The settings on record: Rheb-dependent in vitro kinase assay; read-out: IVK IC50. For orientation: TR-FRET usually uses a lanthanide donor and a delayed reading to cut background.
Sequence of HA-GST-Rheb (GTP-γ-S loaded) activating mTORC1 (Q15382 1-181): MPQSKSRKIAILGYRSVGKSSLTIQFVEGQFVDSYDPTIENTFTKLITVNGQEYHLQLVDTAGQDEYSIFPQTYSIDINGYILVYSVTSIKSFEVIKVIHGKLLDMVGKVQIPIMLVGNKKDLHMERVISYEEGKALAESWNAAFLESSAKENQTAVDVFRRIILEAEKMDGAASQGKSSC

Sequence of Rheb (Q15382 1-169 limits assumed): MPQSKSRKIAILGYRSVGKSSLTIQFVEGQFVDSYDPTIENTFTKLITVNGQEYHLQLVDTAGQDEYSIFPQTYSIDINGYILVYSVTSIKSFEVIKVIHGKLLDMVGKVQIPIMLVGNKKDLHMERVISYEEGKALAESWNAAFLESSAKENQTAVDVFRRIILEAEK

In general, IC50 refers to the concentration at which inhibition is half-maximal. Regarding `Clc1ccc(Sc2cccc3[nH]ccc23)cc1` [I-246, 4-(4-chlorophenylthio)-1H-indole], the “ASMS (R3/R0)” value on Rheb is “C (an affinity (R3/R0)<20%)”. Moreover, the concentration for half-maximal inhibition (IC50) in test [1] was 10 to 100 µM.

With `O=C(O)Cn1c(-c2c[nH]c3ncccc23)nc2cc(Cl)c(Cl)cc21` [I-334, 2-(5,6-dichloro-2-(1H-pyrrolo[2,3-b]pyridin-3-yl)-1H-benzo[d]imidazol-1-yl)acetic acid], the “ASMS (R3/R0)” value at Rheb is “B (an affinity (R3/R0) between 100% and 20%)”. For the same molecule, the IC50 in test [1] lay in the range of 10 to 100 µM.

For the molecule `OCc1nc2cc(OCc3ccc(OC(F)(F)F)cc3)c(Cl)c(Cl)c2[nH]1` [I-352, (6,7-dichloro-5-(4-(trifluoromethoxy)benzyloxy)-1H-benzo[d]imidazol-2-yl)methanol], at Rheb, the “ASMS (R3/R0)” value is given as “A (an affinity (R3/R0)>100%)”. Also, the IC50 in test [1] is over 3 µM.

On to `OCc1nc2c(OCC3CCCCC3)c(Cl)c(Cl)cc2[nH]1` [I-395, (5,6-dichloro-4-(cyclohexylmethoxy)-1H-benzo[d]imidazol-2-yl)methanol], for which, at Rheb, the “ASMS (R3/R0)” value was “A (an affinity (R3/R0)>100%)”. Besides, the half-maximal inhibitory concentration (IC50) in test [1] was under 10 µM.

Take `CN1CCC(CCNC(=O)c2cc3c(-c4cc(Cl)cc(Cl)c4)cc(Cl)cc3[nH]2)CC1` [I-31]: the “ASMS (R3/R0)” value on Rheb is on record as “A (an affinity (R3/R0)>100%)”. Further, the half-inhibitory concentration (IC50) in test [1] is over 100 µM.

In the case of `OCc1ccc(Cn2c(CO)cc3c(Br)cc(Oc4ccccc4)cc32)cc1` [I-166], at Rheb, the “ASMS (R3/R0)” value is “B (an affinity (R3/R0) between 100% and 20%)”. The IC50 in test [1] is over 100 µM.

On to `Clc1ccc(Sc2cccc3c2ccn3Cc2ccc(-c3nnn[nH]3)cc2)c(Cl)c1` [I-161, 1-(4-(1H-tetrazol-5-yl)benzyl)-4-(2,4-dichlorophenylthio)-1H-indole], for which the “ASMS (R3/R0)” value on Rheb is “A (an affinity (R3/R0)>100%)”. The IC50 in test [1] is under 10 µM.

With `Clc1cc2nc(-c3ccncc3)[nH]c2cc1Cl` [I-378, 5,6-dichloro-2-(pyridin-4-yl)-1H-benzo[d]imidazole], at Rheb, the “ASMS (R3/R0)” value was “B (an affinity (R3/R0) between 100% and 20%)”. Besides, in test [1], the IC50 fell in the range of 10 to 100 µM.

As to `OCc1cc2c(Br)cc(OCc3ccccc3)cc2[nH]1` [I-241, (6-(Benzyloxy)-4-bromo-1H-indol-2-yl)methanol], the “ASMS (R3/R0)” value at Rheb was “B (an affinity (R3/R0) between 100% and 20%)”. Further, in test [1], the IC50 fell in the range of 10 to 100 µM.

Regarding `O=C(O)c1cc2c(Br)cc(Oc3ccccc3)cc2n1Cc1ccc(C(=O)N(CCO)CCO)cc1` [I-67, 1-(4-(bis(2-hydroxyethyl)carbamoyl)benzyl)-4-bromo-6-phenoxy-1H-indole-2-carboxylic acid], the “ASMS (R3/R0)” value on Rheb was “C (an affinity (R3/R0)<20%)”. Further, the half-maximal inhibitory concentration (IC50) in test [1] was in the range of 10 to 100 µM.

`CN(C)C(=O)c1ccc(Cn2c(C(=O)O)cc3c(Br)cc(SCCc4ccc(Cl)c(Cl)c4)cc32)cc1` [I-25, 4-bromo-6-(3,4-dichlorophenethylthio)-1-(4-(dimethylcarbamoyl)benzyl)-1H-indole-2-carboxylic acid]: the “ASMS (R3/R0)” value on Rheb is “B (an affinity (R3/R0) between 100% and 20%)”. Also, the half-maximal inhibitory concentration (IC50) in test [1] was under 10 µM.

`CN1CCN(c2cccc(NC(=O)c3cc4c(Sc5ccc(Cl)cc5Cl)cc(Cl)cc4[nH]3)c2)CC1` [I-121, 6-chloro-4-(2,4-dichlorophenylthio)-N-(3-(4-methylpiperazin-1-yl)phenyl)-1H-indole-2-carboxamide]: at Rheb, the “ASMS (R3/R0)” value is “B (an affinity (R3/R0) between 100% and 20%)”. In test [1], the IC50 is under 10 µM.

As for `NC(=O)C1CCCN(C(=O)c2cc3c(Sc4ccc(Cl)cc4)cc(Cl)cc3[nH]2)C1` (centres unmarked) [I-132], the “ASMS (R3/R0)” value on Rheb was “B (an affinity (R3/R0) between 100% and 20%)”. Also, in test [1], the IC50 is over 100 µM.

For `O=C(Nc1ccc(-c2cnco2)cc1)c1cc2c(Sc3ccc(Cl)cc3)cc(Cl)cc2[nH]1` [I-128, 6-chloro-4-(4-chlorophenylthio)-N-(4-(oxazol-5-yl)phenyl)-1H-indole-2-carboxamide], the “ASMS (R3/R0)” value at Rheb is on record as “A (an affinity (R3/R0)>100%)”. Further, the IC50 in test [1] was under 10 µM.

In the case of `O=C(Nc1cccnc1)c1ccc(Cn2c(C(=O)O)cc3c(Br)cc(Oc4ccccc4)cc32)cc1` [I-56, 4-bromo-6-phenoxy-1-(4-(pyridin-3-ylcarbamoyl)benzyl)-1H-indole-2-carboxylic acid], the “ASMS (R3/R0)” value at Rheb was “B (an affinity (R3/R0) between 100% and 20%)”. Further, the concentration for half-maximal inhibition (IC50) in test [1] lay within 10 to 100 µM.

With `OCc1cc2c(Br)cc(Sc3ccc(Cl)c(Cl)c3)cc2[nH]1` [I-133, (4-bromo-6-(3,4-dichlorophenylthio)-1H-indol-2-yl)methanol], on Rheb, the “ASMS (R3/R0)” value is “B (an affinity (R3/R0) between 100% and 20%)”. Moreover, in test [1], the 50% inhibitory concentration (IC50) was under 10 µM.

For `CC(C)(C)OC(=O)N1CCN(C(=O)c2ccc(Cn3c(C(=O)O)cc4c(Br)cc(Sc5ccc(Cl)c(Cl)c5)cc43)cc2)CC1` [I-44], on Rheb, the “ASMS (R3/R0)” value is “B (an affinity (R3/R0) between 100% and 20%)”. Besides, the IC50 in test [1] is over 100 µM.

With `C[Si](C)(C)CC(O)c1cc2c(Oc3ccccc3)cc(Cl)cc2[nH]1` (centres unmarked) [I-159, 1-(6-chloro-4-phenoxy-1H-indol-2-yl)-2-(trimethylsilyl)ethanol], on Rheb, the “ASMS (R3/R0)” value is listed as “C (an affinity (R3/R0)<20%)”. The IC50 in test [1] was in the range of 10 to 100 µM.

Consider `OCc1cc2c(Oc3ccccc3)c(Cl)c(Cl)cc2[nH]1` [I-250, (5,6-Dichloro-4-phenoxy-1H-indol-2-yl)methanol], for which the “ASMS (R3/R0)” value on Rheb is “B (an affinity (R3/R0) between 100% and 20%)”. Also, the concentration for half-maximal inhibition (IC50) in test [1] was 10 to 100 µM.

With `OCc1nc2cc(OCc3ccc(Oc4ccccc4)cc3)c(Cl)c(Cl)c2[nH]1` [I-320, [6,7-dichloro-5-[(4-phenoxyphenyl)methoxy]-1H-benzimidazol-2-yl]methanol], the “ASMS (R3/R0)” value on Rheb is “B (an affinity (R3/R0) between 100% and 20%)”. For the same molecule, the IC50 in test [1] is 10 to 100 µM.

As to `CN(C)C(=O)c1ccc(Cn2c(C(=O)O)cc3c(C4CC4)cc(Sc4ccc(Cl)c(Cl)c4)cc32)cc1` [I-10, 4-cyclopropyl-6-(3,4-dichlorophenylthio)-1-(4-(dimethylcarbamoyl)benzyl)-1H-indole-2-carboxylic acid], the “ASMS (R3/R0)” value on Rheb is on record as “A (an affinity (R3/R0)>100%)”. Further, in test [1], the IC50 is under 10 µM.

Take `COC(=O)c1ccc(-c2nc3cc(Cl)c(Cl)cc3[nH]2)cc1` [I-363, methyl 4-(5,6-dichloro-1H-benzo[d]imidazol-2-yl)benzoate]: the “ASMS (R3/R0)” value on Rheb is on record as “A (an affinity (R3/R0)>100%)”. Besides, the concentration for half-maximal inhibition (IC50) in test [1] lay within 10 to 100 µM.

As for `O=C(O)c1ccc(-c2nc3cc(Cl)c(Cl)cc3[nH]2)cc1` [I-364, 4-(5,6-dichloro-1H-benzo[d]imidazol-2-yl)benzoic acid], the “ASMS (R3/R0)” value on Rheb was “B (an affinity (R3/R0) between 100% and 20%)”. Further, the half-maximal inhibitory concentration (IC50) in test [1] is 100 to 300 µM.

In the case of `COC(=O)c1cc2c(Sc3ccc(Br)cc3)cc(Cl)cc2[nH]1` [I-99], on Rheb, the “ASMS (R3/R0)” value was “B (an affinity (R3/R0) between 100% and 20%)”. Also, the half-inhibitory concentration (IC50) in test [1] was over 100 µM.

As to `O=C(O)c1ccc(CCn2c(-c3ccnc4[nH]ccc34)nc3cc(Cl)c(Cl)cc32)cc1` [I-331, 4-(2-(5,6-dichloro-2-(1H-pyrrolo[2,3-b]pyridin-4-yl)-1H-benzo[d]imidazol-1-yl)ethyl)benzoic acid], at Rheb, the “ASMS (R3/R0)” value was “B (an affinity (R3/R0) between 100% and 20%)”. Further, in test [1], the IC50 was 10 to 100 µM.

As for `CN(C)c1cc(-c2nc3cc(Cl)c(Cl)cc3[nH]2)ccn1` [I-351], at Rheb, the “ASMS (R3/R0)” value was “A (an affinity (R3/R0)>100%)”. For the same molecule, in test [1], the IC50 was over 100 µM.

For the molecule `CN1CCN(C(=O)c2ccc(Cn3c(C(=O)O)cc4c(Br)cc(Sc5ccc(Cl)c(Cl)c5)cc43)cc2)CC1` [I-52, 4-bromo-6-(3,4-dichlorophenylthio)-1-(4-(4-methylpiperazine-1-carbonyl)benzyl)-1H-indole-2-carboxylic acid], the “ASMS (R3/R0)” value on Rheb was “B (an affinity (R3/R0) between 100% and 20%)”. Also, in test [1], the 50% inhibitory concentration (IC50) lay in the range of 10 to 100 µM.

Take `Clc1ccc(Sc2cccc3[nH]ccc23)c(Cl)c1` [I-212]: the “ASMS (R3/R0)” value at Rheb was “B (an affinity (R3/R0) between 100% and 20%)”. In addition, the half-maximal inhibitory concentration (IC50) in test [1] was over 3 µM.
